Legend:
Cavia porcellus [1] = organism: Cavia porcellus; experiment: Concentration inhibiting electrically induced contraction of guinea pig ileum(GPI).; format: functional, organism-based
Rattus norvegicus = experiment: Effective dose was measured using in vivo rat hot plate test after intrathecal injection; format: functional; settings: central
Mus musculus [2] = experiment: Concentration inhibiting electrically induced contraction of mouse vas deferens(MVD) at an ED50 of 0.15(ug/kg).; format: functional, organism-based
Mus musculus [3] = organism: Mus musculus; experiment: Potency to inhibit electrically induced contraction of mouse vas deferens(MVD) relative to [Leu5]-enkephalin.; format: functional
Cavia porcellus [4] = experiment: Concentration inhibiting electrically induced contraction of guinea pig ileum(GPI) at an ED50 of 0.15(ug/kg).; format: functional, organism-based
[5] = Selectivity Ratio of IC50 of MVD to IC50 of GPI; format: functional
Cavia porcellus [6] = organism: Cavia porcellus; experiment: Potency to inhibit electrically induced contraction of guinea pig ileum(GPI) relative to [Leu5]-enkephalin.; format: functional

Structure (SMILES) | ED50 (Rattus norvegicus) [µg/kg] | Relative potency (Mus musculus [3]) | Ratio [5] | Relative potency (Cavia porcellus [6]) | other results
NC(=O)[C@@H]1CSSC[C@@H](NC(=O)[C@@H](N)Cc2ccc(O)cc2)C(=O)NCC(=O)N[C@@H](Cc2ccccc2)C(=O)N1 [listing 1 of 2 here] |  |  |  |  | IC50 (Cavia porcellus [1]): 1.51 nM
CN1CC[C@]23c4c5ccc(O)c4O[C@H]2[C@@H](O)C=C[C@H]3[C@H]1C5 [MORPHINE] | 5.6 |  |  |  | 
NC(=O)[C@@H]1CSC[C@@H](NC(=O)[C@@H](N)Cc2ccc(O)cc2)C(=O)NCC(=O)N[C@@H](Cc2ccccc2)C(=O)N1 | 0.15 | 21 | 0.882 | 396 | IC50 (Mus musculus [2]): 0.54 nM; IC50 (Cavia porcellus [4]): 0.62 nM
CC(C)C[C@H](NC(=O)[C@H](Cc1ccccc1)NC(=O)CNC(=O)CNC(=O)[C@@H](N)Cc1ccc(O)cc1)C(=O)O [ENKEPHALIN] | > 100 |  |  |  | 
NC(=O)[C@@H]1CSSC[C@@H](NC(=O)[C@@H](N)Cc2ccc(O)cc2)C(=O)NCC(=O)N[C@@H](Cc2ccccc2)C(=O)N1 [listing 2 of 2 here] |  | 17 |  | 132 | 
NC(=O)[C@H]1CSSC[C@H](NC(=O)[C@@H](N)Cc2ccc(O)cc2)C(=O)NCC(=O)N[C@H](Cc2ccccc2)C(=O)N1 |  |  | 0.503 |  | 
